Assay results taken from PubChem BioAssay (NCI).
Where “and” joins values, the source holds several entries; their conditions need not be identical. Equal entries are not always repeated.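 Grown in 96-well plates, cells were treated for 48 hours with each compound at five concentrations. Insufficient inhibition: endpoint recorded as highest concentration tested. GI50 marks 50% less growth. The concentration for full growth arrest is given as TGI.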

What follows are molecules tested on SNB-78 CNS (assay: NCI tumour cell line growth inhibition, 48 h).

Structure (SMILES)	TGI	GI50
COC(=O)c1c/c(=N\NC(=O)CC(=O)Nc2ccccc2OC)c2ccccc2o1	> 100 µM	
NC(CCC(=O)NC(CSSCCCCS(=O)O)C(=O)NCC(=O)O)C(=O)O (configuration not stated)	> 100 µM	
COC12C=C(C)C(CC1)CC2C(=O)O (configuration not stated)	> 100 µM	
OCC(O)CC[CH2][Sn]([Br])([c]1ccccc1)[c]1ccccc1 (configuration not stated)	> 100 µM	> 100 µM
CCc1ccc(/C=C\c2cc(OC)c(OC)c(OC)c2)cc1	> 100 µM	0.0224 µM
O=c1c2cc([N+](=O)[O-])ccc2sc2ccsc12	> 100 µM	
COc1ccc(C2=CC3CCC2C3)cc1 (configuration not stated)	> 100 µM	
COc1ccc(/C=C/CN(C)CCc2ccccc2)cc1OC	> 100 µM	
NC(=O)C(=O)N/N=C(\CC1(O)C(=O)Nc2ccccc21)c1ccc2ccccc2c1 (configuration not stated)	> 100 µM	
COC(=O)/C(=N/NC(=O)C[N+](C)(C)C)C(C(=O)OC)C(=O)C(=O)Nc1ccc(F)cc1 (configuration not stated)	> 100 µM	
O=C(c1ccccc1)c1nnc(C(=O)c2ccccc2)nn1	> 344 µM	
Brc1cccc(C=NC23CC4CC(CC(C4)C2)C3)c1	> 100 µM	
CC[CH2][Sn]([CH2]CC)([O]C(=O)c1cccnc1SC)[O][Sn]([CH2]CC)([CH2]CC)[O]C(=O)c1cccnc1SC	1.14 µM	0.138 µM
CCC[CH2][Sn]([CH2]CCC)([O]C(=O)c1cccnc1SC)[O]C(=O)c1cccnc1SC	1.52 µM	0.0893 µM
O=C1O[C@@H](c2ccc3c(c2)OCO3)C2C(=O)O[C@@H](c3ccc4c(c3)OCO4)C12 (some centres not stated)	> 100 µM	
O=C1CCC(=O)N2CCCCN12	> 100 µM	
CC(C)C(=O)NC(=S)Nc1ccc([N+](=O)[O-])cc1C#N	> 100 µM	
N#Cc1cc([N+](=O)[O-])ccc1NC(=O)C(=O)Nc1n[nH]c(N)n1	> 100 µM	
O=C(/C=C/c1c(O)ccc2ccccc12)c1cccc(O)c1	> 100 µM	
CC1=NN(C(=O)Nc2ccccc2)C(=O)C2CCC(=O)N12 (configuration not stated)	> 100 µM	
COC(=O)C1Cc2c(n(Cc3ccccc3)c3ccccc23)C(CCC(=O)O)N1C(C)C (configuration not stated)	> 100 µM	
O=C(O)CNS(=O)(=O)c1ccc(NCc2ccccc2)cc1	> 100 µM	
CC(C)(C)C1C=C(Sc2ccccc2)C(=O)O1 (configuration not stated)	> 100 µM	
CCC[CH2][Sn]1([CH2]CCC)[O]Cc2nc(C)ccc2[O]1	6.39 µM	2.38 µM
O=c1/c(=C/c2ccco2)sc2nc3ccccc3n12	> 100 µM	> 100 µM
O=C1CCC2(c3ccc(F)cc3)Nc3cc(Cl)ccc3N12 (configuration not stated)	> 100 µM	
C/C(CC(=O)Nc1ccc(C)cc1C)=N/N=C(N)N	> 100 µM	

What follows are molecules tested on HOP-18 NSCLC (assay: NCI tumour cell line growth inhibition, 48 h).

Structure (SMILES)	TGI	GI50
COC(=O)c1c/c(=N\NC(=O)CC(=O)Nc2ccccc2OC)c2ccccc2o1	> 100 µM	
NC(CCC(=O)NC(CSSCCCCS(=O)O)C(=O)NCC(=O)O)C(=O)O (configuration not stated)	> 100 µM	
COC12C=C(C)C(CC1)CC2C(=O)O (configuration not stated)	> 100 µM	
OCC(O)CC[CH2][Sn]([Br])([c]1ccccc1)[c]1ccccc1 (configuration not stated)	> 100 µM	> 100 µM
O=c1c2cc([N+](=O)[O-])ccc2sc2ccsc12	> 100 µM	
COc1ccc(C2=CC3CCC2C3)cc1 (configuration not stated)	> 100 µM	
NC(=O)C(=O)N/N=C(\CC1(O)C(=O)Nc2ccccc21)c1ccc2ccccc2c1 (configuration not stated)	> 100 µM	
Cc1cc2c(cc1C)[n+](=O)c(C(=O)C/C(=N/NC(=O)CC#N)C(=O)Nc1ccccc1C(F)(F)F)c(C)n2[O-]	> 100 µM	
COC(=O)/C(=N/NC(=O)C[N+](C)(C)C)C(C(=O)OC)C(=O)C(=O)Nc1ccc(F)cc1 (configuration not stated)	> 100 µM	
O=C(c1ccccc1)c1nnc(C(=O)c2ccccc2)nn1	> 344 µM	
Brc1cccc(C=NC23CC4CC(CC(C4)C2)C3)c1	> 100 µM	
CC[CH2][Sn]([CH2]CC)([O]C(=O)c1cccnc1SC)[O][Sn]([CH2]CC)([CH2]CC)[O]C(=O)c1cccnc1SC	1.81 µM	0.689 µM
CCC[CH2][Sn]([CH2]CCC)([O]C(=O)c1cccnc1SC)[O]C(=O)c1cccnc1SC	2.8 µM	1.48 µM
O=C1O[C@@H](c2ccc3c(c2)OCO3)C2C(=O)O[C@@H](c3ccc4c(c3)OCO4)C12 (some centres not stated)	> 100 µM	
O=C1CCC(=O)N2CCCCN12	> 100 µM	
CC(C)C(=O)NC(=S)Nc1ccc([N+](=O)[O-])cc1C#N	> 100 µM	
O=C(/C=C/c1c(O)ccc2ccccc12)c1cccc(O)c1	> 86.8 µM	
COC(=O)C1Cc2c(n(Cc3ccccc3)c3ccccc23)C(CCC(=O)O)N1C(C)C (configuration not stated)	> 100 µM	
O=C(O)CNS(=O)(=O)c1ccc(NCc2ccccc2)cc1	> 100 µM	
CC(C)(C)C1C=C(Sc2ccccc2)C(=O)O1 (configuration not stated)	> 100 µM	
O=c1/c(=C/c2ccco2)sc2nc3ccccc3n12	> 100 µM	
O=C1CCC2(c3ccc(F)cc3)Nc3cc(Cl)ccc3N12 (configuration not stated)	> 100 µM	

These molecules were tested on XF 498 CNS (assay: NCI tumour cell line growth inhibition, 48 h).

Structure (SMILES)	TGI	GI50
NC(CCC(=O)NC(CSSCCCCS(=O)O)C(=O)NCC(=O)O)C(=O)O (configuration not stated)	> 100 µM	
COC12C=C(C)C(CC1)CC2C(=O)O (configuration not stated)	> 100 µM	
OCC(O)CC[CH2][Sn]([Br])([c]1ccccc1)[c]1ccccc1 (configuration not stated)	> 100 µM	> 100 µM
O=c1c2cc([N+](=O)[O-])ccc2sc2ccsc12	> 100 µM	
COc1ccc(C2=CC3CCC2C3)cc1 (configuration not stated)	> 100 µM	
NC(=O)C(=O)N/N=C(\CC1(O)C(=O)Nc2ccccc21)c1ccc2ccccc2c1 (configuration not stated)	51.3 µM	
Cc1cc2c(cc1C)[n+](=O)c(C(=O)C/C(=N/NC(=O)CC#N)C(=O)Nc1ccccc1C(F)(F)F)c(C)n2[O-]	> 100 µM	
Brc1cccc(C=NC23CC4CC(CC(C4)C2)C3)c1	> 100 µM	
CC[CH2][Sn]([CH2]CC)([O]C(=O)c1cccnc1SC)[O][Sn]([CH2]CC)([CH2]CC)[O]C(=O)c1cccnc1SC	0.296 µM	0.159 µM
CCC[CH2][Sn]([CH2]CCC)([O]C(=O)c1cccnc1SC)[O]C(=O)c1cccnc1SC	2.5 µM	1.25 µM
O=C1O[C@@H](c2ccc3c(c2)OCO3)C2C(=O)O[C@@H](c3ccc4c(c3)OCO4)C12 (some centres not stated)	> 100 µM	
CC(C)C(=O)NC(=S)Nc1ccc([N+](=O)[O-])cc1C#N	> 100 µM	
C/C(CC(=O)Nc1cc(Cl)c(Cl)cc1Cl)=N\NC(N)=O	> 100 µM	
N#Cc1cc([N+](=O)[O-])ccc1NC(=O)C(=O)Nc1n[nH]c(N)n1	> 100 µM	
O=C(/C=C/c1c(O)ccc2ccccc12)c1cccc(O)c1	> 100 µM	
CC1=NN(C(=O)Nc2ccccc2)C(=O)C2CCC(=O)N12 (configuration not stated)	> 100 µM	
O=C(O)CNS(=O)(=O)c1ccc(NCc2ccccc2)cc1	> 100 µM	
CCC[CH2][Sn]1([CH2]CCC)[O]Cc2nc(C)ccc2[O]1	7.8 µM	2.34 µM
O=c1/c(=C/c2ccco2)sc2nc3ccccc3n12	> 100 µM	> 100 µM
O=C1CCC2(c3ccc(F)cc3)Nc3cc(Cl)ccc3N12 (configuration not stated)	86.2 µM	
C/C(CC(=O)Nc1ccc(C)cc1C)=N/N=C(N)N	> 100 µM	

These molecules were tested on DLD-1 colon (assay: NCI tumour cell line growth inhibition, 48 h).

Structure (SMILES)	TGI	GI50
COC(=O)c1c/c(=N\NC(=O)CC(=O)Nc2ccccc2OC)c2ccccc2o1	> 100 µM	
NC(CCC(=O)NC(CSSCCCCS(=O)O)C(=O)NCC(=O)O)C(=O)O (configuration not stated)	> 100 µM	
COC12C=C(C)C(CC1)CC2C(=O)O (configuration not stated)	> 100 µM	
OCC(O)CC[CH2][Sn]([Br])([c]1ccccc1)[c]1ccccc1 (configuration not stated)	> 100 µM	> 100 µM
CCc1ccc(/C=C\c2cc(OC)c(OC)c(OC)c2)cc1	27.8 µM	0.0358 µM
O=c1c2cc([N+](=O)[O-])ccc2sc2ccsc12	> 100 µM	
COc1ccc(C2=CC3CCC2C3)cc1 (configuration not stated)	> 100 µM	
[Cl-].[Dy+3].[O-]/N=C(\c1ccccc1)c1ccccn1.[O-]/N=C(\c1ccccc1)c1ccccn1.[O-]/N=C(\c1ccccc1)c1ccccn1	> 100 µM	35.9 µM
NC(=O)C(=O)N/N=C(\CC1(O)C(=O)Nc2ccccc21)c1ccc2ccccc2c1 (configuration not stated)	> 100 µM	
COC(=O)/C(=N/NC(=O)C[N+](C)(C)C)C(C(=O)OC)C(=O)C(=O)Nc1ccc(F)cc1 (configuration not stated)	> 100 µM	
O=C(c1ccccc1)c1nnc(C(=O)c2ccccc2)nn1	> 344 µM	
Brc1cccc(C=NC23CC4CC(CC(C4)C2)C3)c1	> 100 µM	
CC[CH2][Sn]([CH2]CC)([O]C(=O)c1cccnc1SC)[O][Sn]([CH2]CC)([CH2]CC)[O]C(=O)c1cccnc1SC	0.998 µM	0.219 µM
CCC[CH2][Sn]([CH2]CCC)([O]C(=O)c1cccnc1SC)[O]C(=O)c1cccnc1SC	1.61 µM	0.347 µM
O=C1CCC(=O)N2CCCCN12	> 100 µM	
CC(C)C(=O)NC(=S)Nc1ccc([N+](=O)[O-])cc1C#N	> 100 µM	
C/C(CC(=O)Nc1cc(Cl)c(Cl)cc1Cl)=N\NC(N)=O	> 100 µM	
N#Cc1cc([N+](=O)[O-])ccc1NC(=O)C(=O)Nc1n[nH]c(N)n1	> 100 µM	
O=C(/C=C/c1c(O)ccc2ccccc12)c1cccc(O)c1	> 100 µM	
CC1=NN(C(=O)Nc2ccccc2)C(=O)C2CCC(=O)N12 (configuration not stated)	> 100 µM	
COC(=O)C1Cc2c(n(Cc3ccccc3)c3ccccc23)C(CCC(=O)O)N1C(C)C (configuration not stated)	> 100 µM	
O=C(O)CNS(=O)(=O)c1ccc(NCc2ccccc2)cc1	> 100 µM	
CC(C)(C)C1C=C(Sc2ccccc2)C(=O)O1 (configuration not stated)	> 100 µM	
CCC[CH2][Sn]1([CH2]CCC)[O]Cc2nc(C)ccc2[O]1	21.9 µM	10.2 µM
O=c1/c(=C/c2ccco2)sc2nc3ccccc3n12	> 100 µM	> 100 µM
O=C1CCC2(c3ccc(F)cc3)Nc3cc(Cl)ccc3N12 (configuration not stated)	> 100 µM	
C/C(CC(=O)Nc1ccc(C)cc1C)=N/N=C(N)N	> 100 µM	

The molecules below were run on KM20L2 colon (assay: NCI tumour cell line growth inhibition, 48 h).

Structure (SMILES)	TGI	GI50
COC(=O)c1c/c(=N\NC(=O)CC(=O)Nc2ccccc2OC)c2ccccc2o1	> 100 µM	
NC(CCC(=O)NC(CSSCCCCS(=O)O)C(=O)NCC(=O)O)C(=O)O (configuration not stated)	> 100 µM	
COC12C=C(C)C(CC1)CC2C(=O)O (configuration not stated)	> 100 µM	
OCC(O)CC[CH2][Sn]([Br])([c]1ccccc1)[c]1ccccc1 (configuration not stated)	> 100 µM	> 100 µM
CCc1ccc(/C=C\c2cc(OC)c(OC)c(OC)c2)cc1	0.125 µM and 0.032 µM	0.0164 µM
O=c1c2cc([N+](=O)[O-])ccc2sc2ccsc12	> 100 µM	
COc1ccc(/C=C/CN(C)CCc2ccccc2)cc1OC	> 100 µM	
